Like-named read-outs stand apart in the source and are kept apart here.
Tests used:
[1] = tested on: HT-1080 cells; experiment: Cytotoxicity (methylene blue cell viability), HT-1080; assay type: cell-based, human; settings: Homo sapiens
Procedure: (§1) Having synthesized the CETZOLE analogs, their cytotoxic activity was evaluated. […] NCI-H522 RV-GFP is the corresponding control with RV-GFP tag, but without SLC7A11 overexpression. […] The cytotoxicity screening was conducted as described previously.
(§2) Cell lines were cultured in a humidified atmosphere containing 10% CO2 in Dulbecco's modified Eagle's medium (Mediatech, Inc) supplemented with 10% fetal bovine serum (Atlanta Biologicals). Cell types used MEFs, HT1080 (human fibrosarcoma cells), NARF2 (osteosarcoma), WI-38 (human embryonic lung fibroblast), MDA MB 231 (breast cancer), HCT-116 (human colon), and NCI-H522 (Non-Small Cell Lung Cancer) cell lines. To determine viability throughout these examples, 5,000 cells were plated per well of a 96-well plate and drugs were added 1 day later. Cells were stained 1 to 3 days later with a saturated solution of methylene blue in 50% ethanol. Plates were rinsed and retained dye was quantified by spectrophotometry. Absorbance was normalized to DMSO and given as 1 or 100% for cell viability. Results are representative of at least two independent experiments. Statistical significance was assessed using the Student's t test. All commercially available chemicals were obtained from Cayman Chemicals unless otherwise noted.

[2] = tested on: NCI-H522, HT-1080, and MDA-MB-231 cells; experiment: Cytotoxicity screening of CETZOLE probes and negative controls; assay type: cell-based; settings: 20 μM maximum concentration
From the text: The benzophenone bromo-alkane 28e was obtained by selective EDC coupling of diaminobenzophenone 31 with 4-pentynoic acid 32 to obtain amide 33, followed by dropwise addition of bromoacetyl bromide 30 to a solution of 33 and TEA in DCM. To obtain intermediate 28f, Boc-protection of methyl 2-amino-5-bromobenzoate 34 to get 35, followed by installing an azide group at the para position employing Markiewicz and Helquist conditions, gave the azide 36. This was subjected to saponification followed by EDC coupling with propargyl amine 38 to obtain 39. Boc deprotection to get 40 was followed by acylation of the resulting amine with bromoacetyl bromide 30 afforded the bromo alkane 28f. They were screened for activity on NCI-H522, HT-1080, and MDA-MB-231 cells prior to using in target identification.
A similar cytotoxicity trend was observed on HT-1080 and MDA-MB-231 cancer cell lines.
Cell lines were cultured in a humidified atmosphere containing 10% CO2 in Dulbecco's modified Eagle's medium (Mediatech, Inc) supplemented with 10% fetal bovine serum (Atlanta Biologicals). […] Plates were rinsed and retained dye was quantified by spectrophotometry. Absorbance was normalized to DMSO and given as 1 or 100% for cell viability. […] Statistical significance was assessed using the Student's t test. […]

[3] = tested on: NCI-H522 cells; experiment: Cytotoxicity (methylene blue cell viability), NCI-H522; assay type: cell-based, human; settings: Homo sapiens
Procedure: as §1, §2

[4] = tested on: MDA-MB-231 cells; experiment: Cytotoxicity (methylene blue cell viability), MDA-MB-231; assay type: cell-based; settings: Homo sapiens
Procedure: as §1, §2

[5] = tested on: HeLa cells; experiment: Cellular localization of probes by bio-imaging; assay type: cell-based; settings: 37° C. one hour, TAMRA-PEG-3-azide click
Procedure: FIGS. 17A-17E: Cellular localization of CETZOLE probes. […] Cells were incubated with the respective agent, permeabilized, subjected to TAMRA-PEG3 azide ligation, and viewed under microscope.
The thiazole alkyne pharmacophore undergoes thiol addition. Therefore, PPd is believed to interact covalently with the target protein, and the propargyl alkyne serves as a clickable bio-orthogonal handle for attaching reporter tags. On the other hand, PPe has a photoactivatable benzophenone moiety that covalently binds to the target protein(s) upon photo irradiation. Bio-imaging experiments were conducted to determine the spatial localization of CETZOLE probes in HeLa cells using fluorescent reporter tags. For this, HeLa cells were incubated with probe PPd and the negative control NPd (FIG. 17A) at 37° C. for one-hour. The cells were washed with cold PBS, fixed with formaldehyde (5%), permeabilized with triton-X, and subjected to bioorthogonal click reaction with TAMRA-PEG-3-azide in the presence of tris-hydroxypropyltriazolylmethylanine (THPTA), copper (II) sulfate (CuSO4), and sodium ascorbate. After multiple washings, cells were transferred on to a microscope viewing slide, stained with Hoechst dye, and observed under Olympus microscope (FIGS. 17C-17E).

[6] = tested on: NCI-H522 cells; assay type: cell-based; settings: human, 3 days
From the text: FIGS. 10A-10C: Results of live cell imaging.
FIG. 16: Evaluation of ferroptosis-inducing character of CETZOLE probes. A three-day ferroptosis rescue assay of NCI-H522 cells treated with DMSO, 1, RSL3, and CETZOLE analogs, and liproxstatin-1 co-treatment, showing significant ferroptosis inducing probes.
The live cell montage images in FIG. 10A show notable ferroptosis-related morphological changes, such as membrane breakage and floating cell debris in the medium. The NCI-H522 cell viability improved overall when cells were co-treated with the radical scavenger liproxstatin-1 (FIG. 10C). […] To confirm this, flow-cytometry was performed to quantify lipid peroxidation using redox-active BODIPY-C11 (FIGS. 11A-11E).
Overall, CETZOLE probes do induce radical-mediated cell death and are therefore indeed ferroptotic agents.
as §2, with “noted. Compound CETZOLE 1 and the analogs were synthesized as highlighted.” for “noted.”

[7] = tested on: NCI-H522 and HT-1080 cancer cell lines, WI38 and MEFs normal cell lines; experiment: Selective cytotoxicity assay at a single concentration; assay type: cell-based; parameters: dose or concentration left out as unconfirmed; settings: NCI-H522, HT-1080, WI38, MEFs
Procedure: Overall, WI38 cells were the most tolerant to the treatment, whereas MEF cells were partially tolerant and relatively less sensitive than both NCI-H522 and HT-1080 cells. To determine cytotoxicity at a therapeutically more relevant concentration, cells were treated at a single concentration of […] (FIG. 12).
as §2, with “noted. Compound CETZOLE 1 and the analogs were synthesized as highlighted.” for “noted.”

[8] = tested on: 60 human cancer cell lines; experiment: NCI 60 human cancer cell line assay, single dose; assay type: cell-based; settings: single dose of 10 μM, 60 cell lines
Procedure: (§3) The cell lines used in this assay belonged to leukemia, non-small-cell lung cancer, colon cancer, CNS cancer, melanoma, ovarian cancer, renal cancer, prostate cancer, and breast cancer. The compounds were first tested at a single dose of 10 μM.

[9] = tested on: WI38 cells; experiment: Cytotoxicity on normal cell line WI38; assay type: cell-based, human; settings: Homo sapiens, WI-38; Table 2; lung tissue fibroblast; read-out: Half maximal inhibitory concentration (IC50), Normal Cell Line WI38
Procedure: (§4) To determine cytotoxicity at a therapeutically more relevant concentration, cells were treated at a single concentration of […] (FIG. 12).
as §2

[10] = tested on: ovarian cancer cell line IGROV1; experiment: NCI 60 cell line assay, single dose, IGROV1; assay type: cell-based, human; settings: single dose of 10 μM
Procedure: as §3, with “μM. Analogue 20a was the most cytotoxic with a mean percentage growth of 1.24 (FIG. 13A). […] Analogs 20a and 23 were further tested in the NCI dose response assay ([…]).” for “μM.”

[11] = tested on: MEFs (Mouse Embryonic Fibroblasts); experiment: Cytotoxicity on normal cell line MEFs; assay type: cell-based; settings: Fibroblast; Table 2; Mouse Embryonic Fibroblasts; read-out: Half maximal inhibitory concentration (IC50), Normal Cell Line Mefs
Procedure: as §4, §2

[12] = tested on: leukemia, ovarian cancer, and renal cancer cell lines; experiment: NCI dose response assay; assay type: cell-based, human
Procedure: as §3

[13] = tested on: NCI-H522 RV-GFP cells; experiment: Cytotoxicity (methylene blue cell viability), NCI-H522 RV-GFP control clone; assay type: cell-based, human; settings: Homo sapiens, NCI-H522; Table 1; control clone with RV-GFP tag; read-out: Half maximal inhibitory concentration (IC50), NCI-H522 Rv-GFP
Procedure: as §1, §2

[14] = tested on: NCI-H522 GFP-SLC7A11 #8 cells; experiment: Cytotoxicity (methylene blue cell viability), NCI-H522 clone overexpressing GFP-SLC7A11; assay type: cell-based, human; settings: Homo sapiens; Table 1; NCI-H522 clone overexpressing GFP-tagged SLC7A11; read-out: Half maximal inhibitory concentration (IC50), NCI-H522 GFP-SCL7A11 #8
Procedure: as §1, §2

[15] = tested on: renal cancer cell line UO-31; experiment: NCI 60 cell line assay, single dose, UO-31; assay type: cell-based, human; settings: single dose of 10 μM
Procedure: as §3, with “μM. Analogue 20a was the most cytotoxic with a mean percentage growth of 1.24 (FIG. 13A). […] Analogs 20a and 23 were further tested in the NCI dose response assay ([…]).” for “μM.”

[16] = tested on: NARF2 cells; experiment: Cytotoxicity (methylene blue cell viability), NARF2; assay type: cell-based, human; settings: Homo sapiens; Table 1; NARF2 osteosarcoma cells; read-out: Half maximal inhibitory concentration (IC50), NARF2
Procedure: as §1, §2

[17] = tested on: renal cancer cell line 786-0; experiment: NCI 60 cell line assay, single dose, 786-0; assay type: cell-based, human; settings: single dose of 10 μM
Procedure: as §3, with “μM. Analogue 20a was the most cytotoxic with a mean percentage growth of 1.24 (FIG. 13A). […] Analogs 20a and 23 were further tested in the NCI dose response assay ([…]).” for “μM.”

[18] = HT-1080, Table 3, probes and negative controls, read-out: IC50, HT-1080
[19] = NCI-H522, Table 3, probes and negative controls, read-out: IC50, NCI-H522
[20] = MDA-MB-231, Table 3, probes and negative controls, read-out: IC50, MDA-MB-231

Q: Which IC50 [1, 18] does the source give for C#Cc1nc(C2=C(C)C(=O)/C(=N/OCC(=O)Nc3ccc4oc(=O)c(C)cc4c3)C2)cs1 [PPc, (E)-2-(((4-(2-Ethynylthiazol-4-yl)-3-methyl-2-oxocyclopent-3-en-1-ylidene)amino)oxy)-N-(3-methyl-2-oxo-2H-chromen-6-yl)acetamide] here?
A: > 20000 nM

Q: And the “cytotoxicity at maximum concentration tested” value [2]?
A: did not induce any cytotoxicity

Q: What about the IC50 [3, 19] of the same molecule?
A: > 20000 nM

Q: What about the IC50 [4, 20] of the same molecule?
A: > 20000 nM

Q: C#CCO/N=C1\CC(c2csc(C#C)n2)=C(C)C1O (centres unmarked) [PPd, 4-(2-Ethynylthiazol-4-yl)-2-hydroxy-3-methylcyclopent-3-en-1-one 0-prop-2-yn-1-yl oxime] was tested. Which “spatial localization of probe” value [5] did it give?
A: intense intracellular aggregation of probe in the nucleus and vacuoles

Q: And the IC50 [1, 18]?
A: 1170 ± 120 nM

Q: What about the IC50 [3, 19] of the same molecule?
A: 2310 ± 1080 nM

Q: What about the IC50 [4, 20] of the same molecule?
A: 2700 ± 720 nM

Q: And the “cell viability on liproxstatin-1 co-treatment (rescue)” value [6]?
A: 75%

Q: For C#Cc1nc(C2=C(C)C(OC(C)=O)/C(=N/OC(C)=O)C2)cs1 (centres unmarked) [compound 20a, (E)-5-(Acetoxyimino)-3-(2-ethynylthiazol-4-yl)-2-methylcyclopent-2-en-1-yl acetate], which “cell death at a single concentration” value [7] is on record?
A: killed only the cancer cell lines NCI-H522 and HT-1080

Q: And the mean percentage growth [8]?
A: 1.24

Q: What about the IC50 [9] of the same molecule?
A: 1530 ± 360 nM

Q: What about the “percentage growth, IGROV1” value [10] of the same molecule?
A: −95%

Q: And the IC50 ([1]; HT-1080, Table 2, read-out: Half maximal inhibitory concentration (IC50), Cancer Cell Line HT1080)?
A: 140 ± 60 nM

Q: What about the IC50 ([1]; Table 1, HT-1080 fibrosarcoma cell line, read-out: Half maximal inhibitory concentration (IC50), HT-1080) of the same molecule?
A: 140 ± 60 nM

Q: And the IC50 [11]?
A: 120 ± 60 nM

Q: What about the “sensitivity of cell lines in dose response assay” value [12] of the same molecule?
A: particularly sensitive

Q: And the IC50 ([3]; NCI-H522, Table 2, read-out: Half maximal inhibitory concentration (IC50), Cancer Cell Line NCI-H522)?
A: 170 ± 80 nM

Q: And the IC50 ([3]; Table 1, NCI-H522 cancer cell line, read-out: Half maximal inhibitory concentration (IC50), NCI-H522)?
A: 170 ± 80 nM

Q: And the IC50 [13]?
A: 260 ± 110 nM

Q: And the IC50 [14]?
A: 1590 ± 490 nM

Q: And the “percentage growth, UO-31” value [15]?
A: −95%

Q: And the IC50 [16]?
A: 7260 ± 2010 nM

Q: What about the IC50 ([4]; Table 1, MDA-MB-231 breast cancer cell line, read-out: Half maximal inhibitory concentration (IC50), MDA-MB-231) of the same molecule?
A: 230 ± 20 nM

Q: And the “percentage growth, 786-0” value [17]?
A: −95%

Q: And the “cell viability on liproxstatin-1 co-treatment (rescue)” value [6]?
A: 60%

— patent US20260199297A1, “FERROPTOSIS INDUCERS TO TREAT CANCER” (The University of Toledo, priority 2022, published 2026)
